# According to patent publication US20220073981A1 (KOREA INSTITUTE OF SCIENCE AND TECHNOLOGY, priority 2020, published 2022):
# Tested on: BEAS-2B cell line
# Test: Cytotoxicity test (MTT assay)
# Assay type: cell-based, human
# Conditions: 48 hours exposure
# Description: An MTT assay was performed using the BEAS-2B cell line according to the method of Mossman et al. (J. Immunol. Methods, 65, 55-63, 1983).
smiles,measurement,value
CCC(C)=O [2-butanone],concentration (IC5) showing the 95% survival rate,22270 µM
same,concentration showing the 80% survival rate,106210 µM
